In patent US10139415B2, “Method for predicting responsiveness to compound inhibiting MAPK signal transduction pathway” (DAIICHI SANKYO COMPANY, LIMITED, priority 2013, dated 2018):
Where two headings read alike, the source gives them in different places.

Assays:
MEK = conditions: cited from earlier work
HT29 cells = assay: cell cycle measurement / apoptosis induction (PI staining, flow cytometer); assay type: cell-based; conditions: at the concentration that completely inhibited phosphorylation of ERK, 48 hours
Experimental: (§1) A cell cycle measurement was performed by propidium iodide (PI) staining as described below. First, cells were subjected to drug treatment after 24 hours from seeding thereof in a 6-well plate. After collecting the culture medium and trypsinized cells, they were subjected to centrifugation at 1,000 g for 5 minutes, and the supernatant was removed. 1 mL of PBS^− was added to suspend the cells. The suspension was transferred to a 1.5-mL tube and then subjected to centrifugation treatment at 13,000 g for 1 minute, and the supernatant was removed. 200 μL of PBS^− was added to the residue to suspend the cells, and 1 mL of ice-cold 70% ethanol was added. Then, the cells were vortexed and immobilized at 4° C.
(§2) The immobilized cells were subjected to centrifugation at 1,000 g for 5 minutes, and the supernatant was removed. 1 mL of a PBS^− solution containing 10 μg/mL of RNase was added to the residue to suspend the cells, which was left to stand still at 37° C. for 20 minutes. After that, centrifugation was performed for 5 minutes, and then the supernatant was removed. […] of a PBS^− solution containing PI (50 μg/mL, manufactured by Wako) was added to the residue to suspend the cells. The total volume thereof was passed through a nylon mesh (φ=42 μm) and used as a sample. An intracellular DNA content was detected with PMT4 of a flow cytometer (manufactured by Beckman Coulter) to measure a cell cycle.
(§3) 48 hours after the drug treatment, the cells were collected and subjected to ethanol fixation and PI staining to measure a DNA content with a flow cytometer. […] In addition, the expression amount of a target molecule being phosphorylated was calculated compared to the expression amount of a target molecule to evaluate the influence on a cell cycle at such a concentration of inhibiting the expression of the phosphorylation of the target molecule by 95% or more.
(§4) 48 hours after the drug treatment, the cells were collected and subjected to ethanol fixation and PI staining to measure a DNA content with a flow cytometer. In addition, in order to measure target molecule inhibitory activity in the drug-treated cells, the expression of ERK, phosphorylated ERK, MEK, phosphorylated MEK, and actin in the cells was evaluated by western blotting 24 hours after the drug treatment. In addition, the expression amount of a target molecule being phosphorylated was calculated compared to the expression amount of a target molecule to evaluate the influence of each inhibitor on a cell cycle at such a concentration that the expression of the phosphorylation of the target molecule was inhibited by 95% or more.

A375 cells = assay: as above; assay type: cell-based
Experimental: as §1, §2, §3, §4

DLD-1 cells = assay: as above; assay type: cell-based; conditions: at the concentration that completely inhibited phosphorylation of ERK, 48 hours
Experimental: as §1, §2, §3, §4

HCT_116 cells [1] = assay: as above; assay type: cell-based; conditions: at the concentration that completely inhibited phosphorylation of ERK (MEK and ERK for SB590885), 48 hours
Experimental: as §1, §2, §3, §4

SW48 cells [2] = assay: as above; assay type: cell-based; conditions: at the concentration that completely inhibited phosphorylation of ERK, 48 hours
Experimental: as §1, §2, §3, §4

[3] = tested on: malignant melanoma having an active BRAF mutation; conditions: patients with malignant melanoma having an active BRAF mutation, clinical trial; cited from earlier work
SK-MEL-1 cells = assay: cell growth-suppressive activity test; assay type: cell-based; conditions: 2D and 3D culture, 72 hours, CellTiter-Glo
Experimental: (§5) A cell growth-suppressive activity test was performed in both of two-dimensional culture and three-dimensional culture. First, a plate for three-dimensional culture was produced. Specifically, poly(2-hydroxyethyl methacrylate) (hereinafter abbreviated as poly-HEMA, manufactured by Sigma) was added to 95% ethanol so that the concentration was 5 mg/mL, and dissolved therein at 37° C. overnight. The solution was used as a poly-HEMA solution. The solution was loaded into a 96-well plate (manufactured by Nunc) at 50 μL/well. The plate was dried at 37° C. to produce a plate for three-dimensional culture coated with poly-HEMA.
(§6) The two-dimensional culture (hereinafter sometimes referred to as 2D culture) and the three-dimensional culture (hereinafter sometimes referred to as 3D culture) were performed by seeding the cells in a 96-well plate at 1×10^3 cells/150 μL/well and 2×10^3 cells/75 μL/well, respectively, and performing drug treatment on the following day. The total volume was set to 200 μL in the two-dimensional culture, and the total volume was set to 100 μL in the three-dimensional culture. Cell growth was measured by measuring intracellular ATP amounts at the time of the drug treatment and 72 hours after the drug treatment. Specifically, after the removal of the culture medium at 100 μL/well, CellTiter-Glo (manufactured by Promega) was added at 50 μL/well in the two-dimensional culture, and CellTiter-Glo was added at 50 μL/well in the three-dimensional culture. After the addition, the plate was shaken with a shaker for 2 minutes and left to stand still at room temperature for 10 minutes. The total volume of each well was transferred to a white 96-well plate (manufactured by Nunc) and measured for its light emission intensity with a Wallac 1420 multilabel counter (manufactured by Perkin Elmer). From the resultant light emission amount, a growth ratio (Growth (%)) relative to a non-drug-treated sample after 72 hours was determined using the following mathematical formula 1 and mathematical formula 2.

HCT_116 cells [4] = assay: cell growth-suppressive activity test; assay type: cell-based; conditions: 2D and 3D culture, 72 hours, CellTiter-Glo
Experimental: as §5, §6

colo-201 cells = assay: cell growth-suppressive activity test; assay type: cell-based; conditions: 2D and 3D culture, 72 hours, CellTiter-Glo
Experimental: as §5, §6

colo-205 cells = assay: cell growth-suppressive activity test; assay type: cell-based; conditions: 2D and 3D culture, 72 hours, CellTiter-Glo
Experimental: as §5, §6

SW48 cells [5] = assay: cell growth-suppressive activity test; assay type: cell-based; conditions: 2D and 3D culture, 72 hours, CellTiter-Glo
Experimental: as §5, §6

24 kinds of cell lines = conditions: GI50
Experimental: as §5
The two-dimensional culture (hereinafter sometimes referred to as 2D culture) and the three-dimensional culture (hereinafter sometimes referred to as 3D culture) were performed by seeding the cells in a 96-well plate at 1×10^3 cells/150 μL/well and 2×10^3 cells/75 μL/well, respectively, and performing drug treatment on the following day. […] Cell growth was measured by measuring intracellular ATP amounts at the time of the drug treatment and 72 hours after the drug treatment. […] The total volume of each well was transferred to a white 96-well plate (manufactured by Nunc) and measured for its light emission intensity with a Wallac 1420 multilabel counter (manufactured by Perkin Elmer). […]

[6] = tested on: phosphorylation of MEK and ERK; assay: MEK and ERK phosphorylation inhibition by western blotting; assay type: cell-based; conditions: any of the cell lines (A375, HT29, DLD-1, HCT_116, SW48), 0.3-10 μM
Experimental: as §4

For `Cn1cnc2c(F)c(Nc3ccc(Br)cc3Cl)c(C(=O)NOCCO)cc21` [AZD6244], the IC50 (MEK; non-ATP-competitive manner, read-out: MEK inhibition, IC50 value) is listed as roughly 0.012 µM.
In the case of `O=C(NOCC1CC1)c1ccc(F)c(F)c1Nc1ccc(I)cc1Cl` [PD184352], the “apoptosis induction / influence on cell cycle (sub-G1 population)” value (shortened to “apoptosis induction / influence”) (HT29 cells) is reported as “remarkable G1 arrest was induced but no apoptosis was induced”, the “apoptosis induction / influence” value (A375 cells; at the concentration that completely inhibited phosphorylation of ERK (MEK and ERK for SB590885), 48 hours) is reported as “remarkable G1 arrest was induced but no apoptosis was induced” and the apoptosis induction (A375 cells; concentration higher than that completely inhibiting phosphorylation of ERK) is reported as “Apoptosis was induced”. The “apoptosis induction / influence” value (DLD-1 cells) was “did not exhibit any particular influence”, the “apoptosis induction / influence” value (HCT_116 cells [1]) was “apoptosis was induced” and the “apoptosis induction / influence” value (SW48 cells [2]) was “apoptosis was induced”.
In the case of `O=C(NOC[C@H](O)CO)c1ccc(F)c(F)c1Nc1ccc(I)cc1F` [PD0325901], the “clinical response, total of a partial response and a complete response” value [3] is given as “about 10%”.
In the case of `N#CC(=C(/N)Sc1ccccc1N)/C(C#N)=C(\N)Sc1ccccc1N` [U0126], the “sensitivity in growth-suppressive activity test (from GI50)” value (shortened to “sensitivity … (from GI50)”) (SK-MEL-1 cells) is reported as “high sensitivity”, the “sensitivity … (from GI50)” value (HCT_116 cells [4]) is reported as “high sensitivity” and the “sensitivity … (from GI50)” value (colo-201 cells) is reported as “high sensitivity”. The “sensitivity … (from GI50)” value (colo-205 cells) was “high sensitivity”, the “sensitivity … (from GI50)” value (SW48 cells [5]) was “high sensitivity” and the “tendency of drug sensitivity over the cell line panel compared with SMK-17” value (24 kinds of cell lines) was 23 out of the 24 kinds of cell lines exhibited a tendency of drug sensitivity similar to that in the case of SMK-17.
With `CNC(=O)c1cc(Oc2ccc(NC(=O)Nc3ccc(Cl)c(C(F)(F)F)c3)cc2)ccn1` [sorafenib] the “inhibitory effect on the phosphorylation of MEK and ERK” value [6] was “did not provide complete inhibitory effects”.
